Results published in ChEMBL document CHEMBL3286183, “Minor diterpene glycosides from the leaves of Stevia rebaudiana” (J Nat Prod, 2014).
Activity calls are given as the source filed them.

Legend:
Format in all cases: functional, organism-based
Staphylococcus aureus = test: Antimicrobial activity against methicillin-resistant Staphylococcus aureus ATCC 43300
Escherichia coli = test: Antimicrobial activity against Escherichia coli ATCC 35218
Pseudomonas aeruginosa = test: Antimicrobial activity against Pseudomonas aeruginosa ATCC 27853
Aspergillus fumigatus = test: Antimicrobial activity against Aspergillus fumigatus ATCC 90906
[1] = test system: Mycobacterium intracellulare; test: Antimicrobial activity against Mycobacterium intracellulare ATCC 23068
Cryptococcus neoformans = test: Antimicrobial activity against Cryptococcus neoformans ATCC 90113
Candida albicans = test: Antimicrobial activity against Candida albicans ATCC 90028
Plasmodium falciparum [2] = test: Antimalarial activity against chloroquine-sensitive Plasmodium falciparum D6
Plasmodium falciparum [3] = test: Antimalarial activity against chloroquine-resistant Plasmodium falciparum W2

Measured: Activity

C=C1C[C@@]23CC[C@H]4[C@@](C)(CCC[C@@]4(C)C(=O)O)[C@@H]2CC[C@]1(O[C@@H]1O[C@@H](CO)[C@@H](O[C@@H]2O[C@@H](CO)[C@@H](O)[C@H](O)[C@@H]2O)[C@H](O)[C@@H]1O[C@@H]1O[C@@H](CO)[C@@H](O)[C@H](O)[C@@H]1O)C3
not listed: Plasmodium falciparum [2] | Plasmodium falciparum [3]
inactive: all other assays above

C=C1C[C@@]23CC[C@H]4[C@@](C)(CCC[C@@]4(C)C(=O)O[C@@H]4O[C@H](CO)[C@@H](O)[C@H](O)[C@H]4O)[C@@H]2CC[C@]1(O[C@@H]1O[C@H](C)[C@@H](O)[C@H](O)[C@@H]1O[C@@H]1O[C@H](CO)[C@@H](O)[C@H](O[C@@H]2O[C@H](CO)[C@@H](O)[C@H](O)[C@H]2O)[C@H]1O)C3
not listed: Plasmodium falciparum [2] | Plasmodium falciparum [3]
inactive: all other assays above

C=C1C[C@@]23CC[C@H]4[C@@](C)(CCC[C@@]4(C)C(=O)O[C@@H]4O[C@H](CO)[C@@H](O)[C@H](O)[C@H]4O)[C@@H]2CC[C@]1(O[C@@H]1O[C@H](CO)[C@@H](O)[C@H](O)[C@H]1O[C@@H]1O[C@H](CO)[C@@H](O)[C@H](O)[C@H]1O)C3
inactive: all assays above

C=C1C[C@@]23CC[C@H]4[C@@](C)(CCC[C@@]4(C)C(=O)O[C@@H]4O[C@H](CO)[C@@H](O)[C@H](O)[C@H]4O)[C@@H]2CC[C@]1(O[C@@H]1O[C@H](C)[C@@H](O)[C@H](O)[C@@H]1O[C@@H]1O[C@H](CO)[C@@H](O)[C@H](O)[C@H]1O)C3
not listed: Plasmodium falciparum [2] | Plasmodium falciparum [3]
inactive: all other assays above

C=C1C[C@@]23CC[C@H]4[C@@](C)(CCC[C@@]4(C)C(=O)O[C@@H]4O[C@H](CO)[C@@H](O)[C@H](O)[C@H]4O[C@@H]4O[C@H](CO)[C@@H](O)[C@H](O)[C@H]4O)[C@@H]2CC[C@]1(O[C@@H]1O[C@H](CO)[C@@H](O)[C@H](O)[C@H]1O)C3
inactive: all assays above

C=C1C[C@@]23CC[C@H]4[C@@](C)(CCC[C@@]4(C)C(=O)O[C@@H]4O[C@H](CO)[C@@H](O)[C@H](O)[C@H]4O[C@@H]4O[C@H](CO)[C@@H](O)[C@H](O)[C@H]4O)[C@@H]2CC[C@]1(O[C@@H]1O[C@H](CO)[C@@H](O)[C@H](O[C@@H]2O[C@H](CO)[C@@H](O)[C@H](O)[C@H]2O)[C@H]1O[C@@H]1O[C@H](CO)[C@@H](O)[C@H](O)[C@H]1O)C3
not listed: Plasmodium falciparum [2] | Plasmodium falciparum [3]
inactive: all other assays above

C=C1C[C@@]23CC[C@H]4[C@@](C)(CCC[C@@]4(C)C(=O)O[C@@H]4O[C@H](CO)[C@@H](O)[C@H](O)[C@H]4O)[C@@H]2CC[C@]1(O[C@@H]1O[C@H](CO)[C@@H](O)[C@H](O)[C@H]1O[C@@H]1O[C@H](CO)[C@@H](O)[C@H](O[C@@H]2O[C@H](CO)[C@@H](O)[C@H](O)[C@H]2O)[C@H]1O)C3
not listed: Plasmodium falciparum [2] | Plasmodium falciparum [3]
inactive: all other assays above

C=C1C[C@@]23CC[C@H]4[C@@](C)(CCC[C@@]4(C)C(=O)O[C@@H]4O[C@H](CO)[C@@H](O)[C@H](O)[C@H]4O)[C@@H]2CC[C@]1(O[C@@H]1O[C@H](CO)[C@@H](O)[C@H](O[C@@H]2OC[C@@H](O)[C@H](O)[C@H]2O)[C@H]1O[C@@H]1O[C@H](CO)[C@@H](O)[C@H](O)[C@H]1O)C3
not listed: Plasmodium falciparum [2] | Plasmodium falciparum [3]
inactive: all other assays above
